Key:
Assay in all cases: relative viability (nuclei count vs DMSO), 5 days (fraction); higher = more cells survive
[1] = compound: C[C@H]([C@@H](C(=O)N)NC(=O)[C@@H]1CSSC[C@@H](C(=O)N[C@H](C(=O)N[C@@H](C(=O)N[C@H](C(=O)N1)CCCCN)CC2=CNC3=CC=CC=C32)CC4=CC=C(C=C4)O)NC(=O)[C@@H](CC5=CC=CC=C5)N)O [CAP-232] + Nc1nc2[nH]cc(CCc3ccc(C(=O)N[C@@H](CCC(=O)O)C(=O)O)cc3)c2c(=O)[nH]1 [Pemetrexed] (partner 0.2 µM)
Summary of the method: (§1)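 Each reported value is a median over duplicate plates. It expresses relative viability: treated-well nuclei count divided by vehicle-well nuclei count. Lung cancer cell lines in 1536-well plates were dosed by pin tool a day after seeding, alone with one drug or with a fixed anchor-drug dose plus five library-drug doses (not always all listed) in √10 steps, and nuclei were counted after 5 days.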

[2] = compound: C[C@H]([C@@H](C(=O)N)NC(=O)[C@@H]1CSSC[C@@H](C(=O)N[C@H](C(=O)N[C@@H](C(=O)N[C@H](C(=O)N1)CCCCN)CC2=CNC3=CC=CC=C32)CC4=CC=C(C=C4)O)NC(=O)[C@@H](CC5=CC=CC=C5)N)O [CAP-232] + CC(=O)c1c(C)c2cnc(Nc3ccc(N4CCNCC4)cn3)nc2n(C2CCCC2)c1=O [Palbociclib] (partner 0.5 µM)
Summary of the method: as §1

[3] = compound: C[C@H]([C@@H](C(=O)N)NC(=O)[C@@H]1CSSC[C@@H](C(=O)N[C@H](C(=O)N[C@@H](C(=O)N[C@H](C(=O)N1)CCCCN)CC2=CNC3=CC=CC=C32)CC4=CC=C(C=C4)O)NC(=O)[C@@H](CC5=CC=CC=C5)N)O [CAP-232] + CS(=O)(=O)N1CCN(Cc2cc3nc(-c4cccc5[nH]ncc45)nc(N4CCOCC4)c3s2)CC1 [Pictilisib] (partner 1 µM)
Summary of the method: as §1

[4] = compound: C[C@H]([C@@H](C(=O)N)NC(=O)[C@@H]1CSSC[C@@H](C(=O)N[C@H](C(=O)N[C@@H](C(=O)N[C@H](C(=O)N1)CCCCN)CC2=CNC3=CC=CC=C32)CC4=CC=C(C=C4)O)NC(=O)[C@@H](CC5=CC=CC=C5)N)O [CAP-232] + CC(C)C[C@H](NC(=O)[C@H](Cc1ccccc1)NC(=O)c1cnccn1)B(O)O [Bortezomib] (partner 0.002 µM)
Summary of the method: as §1

[5] = compound: C[C@H]([C@@H](C(=O)N)NC(=O)[C@@H]1CSSC[C@@H](C(=O)N[C@H](C(=O)N[C@@H](C(=O)N[C@H](C(=O)N1)CCCCN)CC2=CNC3=CC=CC=C32)CC4=CC=C(C=C4)O)NC(=O)[C@@H](CC5=CC=CC=C5)N)O [CAP-232] + CS(=O)(=O)CCNCc1ccc(-c2ccc3ncnc(Nc4ccc(OCc5cccc(F)c5)c(Cl)c4)c3c2)o1 [Lapatinib] (partner 2 µM)
Summary of the method: as §1

| Cell Line | relative viability ([1]; first compound 0.4 µM) | relative viability ([1]; first compound 1.265 µM) | relative viability ([1]; first compound 4 µM) | relative viability ([1]; first compound 12.65 µM) | relative viability ([2]; first compound 0.4 µM) | relative viability ([2]; first compound 1.265 µM) | relative viability ([2]; first compound 4 µM) | relative viability ([2]; first compound 12.65 µM) | relative viability ([3]; first compound 0.4 µM) | relative viability ([3]; first compound 1.265 µM) | relative viability ([3]; first compound 4 µM) | relative viability ([3]; first compound 12.65 µM) | relative viability ([4]; first compound 0.4 µM) | relative viability ([4]; first compound 1.265 µM) | relative viability ([4]; first compound 4 µM) | relative viability ([4]; first compound 12.65 µM) | relative viability ([5]; first compound 0.4 µM) | relative viability ([5]; first compound 1.265 µM) | relative viability ([5]; first compound 4 µM) | relative viability ([5]; first compound 12.65 µM) |
| --- | --- | --- | --- | --- | --- | --- | --- | --- | --- | --- | --- | --- | --- | --- | --- | --- | --- | --- | --- | --- |
| NCI-H2085 | 0.941 | 0.796 | 0.899 | 0.918 | 0.465 | 0.495 | 0.447 | 0.5 | 0.475 | 0.421 | 0.355 | 0.538 | 1.2 | 0.974 | 1 | 0.791 | 0.833 | 0.789 | 0.732 | 0.878 |
| NCI-H2087 | 0.662 | 0.655 | 0.68 | 0.604 | 0.214 | 0.225 | 0.218 | 0.226 | 0.791 | 0.983 | 0.929 | 0.484 | 1.01 | 0.746 | 1.14 | 0.462 | 1.08 | 1.02 | 1.03 | 0.519 |
| NCI-H2126 | 0.703 | 0.696 | 0.706 | 0.654 | 0.345 | 0.315 | 0.341 | 0.359 | 0.501 | 0.468 | 0.482 | 0.525 | 1.22 | 1.08 | 1.19 | 1.13 | 0.762 | 0.694 | 0.895 | 0.797 |
| NCI-H2228 | 0.447 | 0.364 | 0.335 | 0.358 | 1.06 | 0.803 | 0.971 | 0.632 | 0.381 | 0.768 | 0.369 | 0.269 | 0.9 | 0.977 | 1.21 | 0.74 | 1.32 | 0.907 | 1.66 | 0.904 |
| NCI-H2347 | 0.432 | 0.436 | 0.457 | 0.418 | 0.453 | 0.462 | 0.412 | 0.423 | 0.412 | 0.764 | 0.894 | 0.508 | 1.14 | 1.19 | 1.2 | 0.846 | 0.944 | 0.898 | 0.931 | 0.864 |
| NCI-H2405 | 1.11 | 1.1 | 0.986 | 0.512 | 0.553 | 0.563 | 0.536 | 0.369 | 0.372 | 0.441 | 0.565 | 0.322 | 1 | 0.867 | 1.07 | 0.9 | 1.03 | 0.99 | 1.12 | 0.722 |

— the supplement of paper PMC10307832
